From US10458911B2, “Method for searching candidate material for anti-cancer drug using localized surface plasmon resonance” (KOREA UNIVERSITY RESEARCH AND BUSINESS FOUNDATION, priority 2015, dated 2019)

What was measured:
STAT3 protein [1] = target: T1, STAT3 protein (Homo sapiens, UniProt P40763); test: Native polyacrylamide gel electrophoresis of STAT3 dimerization and its inhibition; assay type: biochemical; conditions: lane 4, with STA-21; 167 kDa dimer without inhibitor (lane 3); FIG. 5A
Description: Analysis of STAT3 dimerization and inhibition of STAT3 dimerization was confirmed by native polyacrylamide gel electrophoresis on 6% native gels using a standard protocol (Y. Jv, B. Li and R. Cao, Chem. Commun., 2010, 46, 80178019). The samples which formed the dimerization and inhibited the dimerization were loaded into the 6% native gel running at a voltage of 10 V cm^−1.

[2] = target: T2, STAT3 protein extracted from MCF-7 cells (Homo sapiens, UniProt P40763); test: Single nanoplasmonic biosensor (LSPR shift), dimerization step with STAT3 extracted from MCF-7 cells treated with STA-21; assay type: cell-based
T2 construct: Phosphorylated STAT3 protein (10 μg mL^−1) extracted from Michigan Cancer Foundation-7 (MCF-7) cells was used; endogenous in cells; host or cells: MCF-7
T2 sequence (P40763 2-770 limits assumed): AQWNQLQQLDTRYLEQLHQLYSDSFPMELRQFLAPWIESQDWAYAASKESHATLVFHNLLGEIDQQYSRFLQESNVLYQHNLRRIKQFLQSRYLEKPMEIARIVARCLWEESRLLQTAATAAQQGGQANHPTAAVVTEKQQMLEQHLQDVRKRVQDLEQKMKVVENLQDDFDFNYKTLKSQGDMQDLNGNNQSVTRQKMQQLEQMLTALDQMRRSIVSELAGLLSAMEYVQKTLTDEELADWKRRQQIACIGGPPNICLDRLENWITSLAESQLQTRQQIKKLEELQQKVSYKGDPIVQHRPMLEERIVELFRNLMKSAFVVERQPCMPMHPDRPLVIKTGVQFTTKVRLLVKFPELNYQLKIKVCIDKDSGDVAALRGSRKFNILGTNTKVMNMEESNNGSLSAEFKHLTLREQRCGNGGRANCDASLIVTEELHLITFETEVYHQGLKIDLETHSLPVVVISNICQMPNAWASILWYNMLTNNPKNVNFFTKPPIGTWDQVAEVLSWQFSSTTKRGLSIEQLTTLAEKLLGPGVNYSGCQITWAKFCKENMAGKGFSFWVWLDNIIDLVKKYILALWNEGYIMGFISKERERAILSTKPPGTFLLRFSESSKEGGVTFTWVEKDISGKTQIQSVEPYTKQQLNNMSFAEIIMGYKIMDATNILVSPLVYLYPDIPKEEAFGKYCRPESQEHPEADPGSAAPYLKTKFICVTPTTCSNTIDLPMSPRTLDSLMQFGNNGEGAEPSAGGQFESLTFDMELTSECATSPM
Procedure: Subsequently, the phosphorylation and the dimerization of STAT3 were conducted as follows. In the first step, after ˜50 nm AuNPs were immobilized onto a coverslip slide, all unbound AuNPs and contaminants were removed, and the surface of the amino-modified AuNPs was cleaned by injecting nuclease-free water for 1 h. In the second step, after STAT3 protein was conjugated to the AuNPs, 300 μL, of the STAT3 solution ([…] in 50 mM Tris-HCl buffer, pH 7.4, containing 150 mM NaCl and 25% glycerol) containing STAT3 protein (10 μg mL^−1) was injected into the immobilized AuNPs and incubated overnight. […]
(§1) The changes in the LSPR spectra of the single amino-modified AuNPs in response to STAT3 protein conjugation, STAT3 phosphorylation, dimerization or inhibition of STAT3 dimerization were recorded. […] The wavelength shift (Δλmax) was calculated using the following formula: λmax (after reaction)−λmax (before reaction).
The MCF-7 cells, human breast tumor cell lines, were cultured in Dulbecco's modified Eagle's medium (DMEM, Thermo Scientific, USA) containing 10% (v/v) fetal bovine serum (FBS, Thermo Scientific, USA) and 3% penicillin/streptomycin (Thermo Scientific, USA) at 37° C. in a humidified atmosphere containing 5% CO2. The inocula of cells were determined using a hemacytometer with a vital dye, trypan blue. […]

STAT3 protein [3] = target: T1, STAT3 protein; test: Single nanoplasmonic biosensor (LSPR shift), inhibition of STAT3 dimerization with recombinant STAT3; assay type: biochemical; design: purchased Sigma Aldrich (Korea)
Procedure: Individual amino-modified AuNPs, ˜50 nm AuNPs, were immobilized onto a glutaraldehyde coated coverslip slide (22×40×0.1 mm) by dropping 10 μL of the dilute amino-modified AuNP solution (FIG. 2). The glass slide was mounted to an RC-30HV closed-bath imaging chamber (Warner Instruments, USA) to visualize the AuNPs after the addition of adsorbates and reactants. The imaging chamber (Warner Instruments, USA) was subsequently inserted onto the holder of the darkfield microscope (Eclipse TE2000-U, Nikon, Japan), and the fluidic flow was set at 100 μL min^−1 by connection to a syringe pump (Harvard Apparatus).
Subsequently, the phosphorylation and the dimerization of STAT3 were conducted as follows. In the first step, after ˜50 nm AuNPs were immobilized onto a coverslip slide, all unbound AuNPs and contaminants were removed, and the surface of the amino-modified AuNPs was cleaned by injecting nuclease-free water for 1 h. […]
as §1

T1 sequence (P40763 whole entry): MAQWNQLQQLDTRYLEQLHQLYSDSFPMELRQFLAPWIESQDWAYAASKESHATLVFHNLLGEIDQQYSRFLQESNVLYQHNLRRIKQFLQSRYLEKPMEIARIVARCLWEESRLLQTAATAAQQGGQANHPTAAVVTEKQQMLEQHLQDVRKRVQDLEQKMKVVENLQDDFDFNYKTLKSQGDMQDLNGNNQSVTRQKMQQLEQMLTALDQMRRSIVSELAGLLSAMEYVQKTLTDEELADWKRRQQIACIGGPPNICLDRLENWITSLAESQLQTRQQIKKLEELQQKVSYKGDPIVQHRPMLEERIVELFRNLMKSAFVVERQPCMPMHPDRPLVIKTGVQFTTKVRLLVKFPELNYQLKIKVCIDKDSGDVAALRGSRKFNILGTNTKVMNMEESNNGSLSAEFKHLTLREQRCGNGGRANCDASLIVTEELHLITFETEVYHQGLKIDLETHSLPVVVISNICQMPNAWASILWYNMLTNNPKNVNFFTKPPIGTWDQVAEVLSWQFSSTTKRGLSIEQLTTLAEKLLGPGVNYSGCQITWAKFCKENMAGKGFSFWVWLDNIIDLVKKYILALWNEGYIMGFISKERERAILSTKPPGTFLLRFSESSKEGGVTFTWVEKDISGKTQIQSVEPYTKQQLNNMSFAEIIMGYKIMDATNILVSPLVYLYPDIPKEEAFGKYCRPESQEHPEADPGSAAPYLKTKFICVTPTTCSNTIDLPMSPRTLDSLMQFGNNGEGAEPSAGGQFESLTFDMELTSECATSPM

For `C[C@@H]1CC(=O)c2c(ccc3c2C(=O)c2cccc(O)c2C3=O)C1` [STA-21], the “STAT3 species observed by Native PAGE” value (STAT3 protein [1]) was 90 kDa monomer, the STAT3 dimer formation ([2]; STAT3 from MCF-7 cells treated with STA-21) was “did not form a STAT3 dimer” and the “red shift of the LSPR λmax for the dimerization step in the presence of inhibitor” value ([2]; STAT3 from MCF-7 cells treated with STA-21 for 24 h, 10.00 nm in the absence, FIG. 4C) was 3.34 nm. The “red shift of the LSPR λmax in the dimerization step in the presence of inhibitor” value (STAT3 protein [3]; STA-21 1 μM, recombinant STAT3 protein, 9.00 nm in the absence, FIG. 4C) was 2.65 nm and the STAT3 dimerization inhibited (STAT3 protein [3]; STA-21 at 10^3 nM, recombinant STAT3) was 100%.
